Experiment: GHS categories as the set defines them, by LD50: 1 up to 5, 2 up to 50, 3 up to 300, 4 up to 2000, 5 above 2000 mg/kg
Conditions: rat; in vivo; po
CCCc1c(Cc2ccc(-c3ccccc3-c3nn[nH]n3)cc2)c(N2CCCC2)nc2ncnn12 showed a GHS category of 4. For CCC(=O)C=CC1C(C)=CCCC1(C)C (centres undefined), the GHS category was 5. Compound Cn1c(=O)c2c([nH]c(=O)n2C)n(C)c1=O has a GHS category of 5. For CN1C(C(=O)Nc2ccccn2)=C(Nc2ccccn2)c2sc(Cl)cc2S1(=O)=O, the GHS category was 2. For CC1C(C)(C)C2=C(C3OCOCC3CC2)C1(C)C (centres undefined), the GHS category was 5. With CCCCOC(=O)c1ccc(C(=O)OCCCC)cc1 the GHS category was 5. Work on CC(CCO)CC(C)(C)C (centres undefined) yielded a GHS category of 5. In the case of C=CCCCCCCCCC(=O)OCC, the GHS category is reported as 5. Compound Nc1ccc(S(=O)(=O)O)cc1N has a GHS category of 5. COC(=O)C(C)(C)c1ccc(Br)cc1 gave a GHS category of 5. CCCCCOC(=O)CCCCC showed a GHS category of 5. For CC1(C)[C@H](C(=O)O[C@H](C#N)c2cccc(Oc3ccccc3)c2)[C@@H]1/C=C\C(=O)OC(C(F)(F)F)C(F)(F)F, the GHS category was 5. NC(=O)Oc1ccccc1C(=O)Oc1ccccc1 showed a GHS category of 5. Compound COP(=O)(NC(=O)C(C)C)SC (centres undefined) has a GHS category of 4. For CCNC(=O)[C@@H]1CCCN1C(=O)[C@H](CCCN=C(N)N)NC(=O)[C@H](CC(C)C)NC(=O)[C@@H](COC(C)(C)C)NC(=O)[C@H](Cc1ccc(O)cc1)NC(=O)[C@H](CO)NC(=O)[C@H](Cc1c[nH]c2ccccc12)NC(=O)[C@H](Cc1cnc[nH]1)NC(=O)[C@@H]1CCC(=O)N1, the GHS category was 4. For O=S(=O)(O)Oc1ccc(C(c2ccc(O)cc2)c2ccccn2)cc1 (centres undefined), the GHS category was 5. Compound CCN(CC)C(C)C(=O)c1ccccc1 (centres undefined) has a GHS category of 4. Work on O=C1Cc2cccc(F)c2N1 yielded a GHS category of 4. Compound CCCCCC1COCCC1OC(C)=O (centres undefined) has a GHS category of 5. With O=C(NC(CCc1ccc2c(c1)OCO2)CCc1ccc2c(c1)OCO2)c1cc2ccccc2o1 the GHS category was 5. C=CCNC(=O)Oc1cccc2c1OC(C)(C)O2 gave a GHS category of 4. C=C(C)C(=O)O[Si](C(C)C)(C(C)C)C(C)C showed a GHS category of 5. Compound C[C@]12C=CC(=O)C=C1CC[C@@H]1[C@@H]2CC[C@@]2(C)[C@H]1CC[C@]2(C)O has a GHS category of 4. For Cc1ccc(C(=O)Oc2ccc(C(O)CNC(C)(C)C)cc2OC(=O)c2ccc(C)cc2)cc1 (centres undefined), the GHS category was 5. For CC(C)=CCC(C#N)(CCN(C)C)c1cccc2ccccc12 (centres undefined), the GHS category was 4. Work on C[Si](C)(C)O[Si](C)(C)O[Si](C)(C)C yielded a GHS category of 5. COc1cc(S(=O)(=O)O)c(C)cc1NC(=O)CC(C)=O showed a GHS category of 5. Compound Cc1ccc(OC(=O)c2ccccc2OC(N)=O)cc1 has a GHS category of 5. Compound COc1ccccc1C1NC(=O)CCS1 (centres undefined) has a GHS category of 5. For CC(COc1ccc(Oc2ccccc2)cc1)Oc1ccccn1 (centres undefined), the GHS category was 5. Work on C=CCCCCCCCCCO yielded a GHS category of 5. Work on CO[C@H]1C[C@H](O[C@H]2[C@H](C)[C@@H](O[C@@H]3O[C@H](C)C[C@H](N(C)C)[C@H]3O)[C@H](C)C[C@@]3(CO3)C(=O)[C@H](C)[C@@H](O)[C@@H](C)[C@@H](C)OC(=O)[C@@H]2C)O[C@@H](C)[C@@H]1O yielded a GHS category of 5. Work on CC(C)CCCCCCCCCCCCCC=CC1CC(=O)OC1=O (centres undefined) yielded a GHS category of 5. Compound CC/C(=C(/CC)c1ccc(O)cc1)c1ccc(O)cc1 has a GHS category of 5. In the case of CCC(=O)OC/C=C(\C)CCC=C(C)C, the GHS category is reported as 5. Compound C=C1NC(=O)C(C)NC(=O)C(C(C)C)NC2C=Cc3c(C(C)O)cc(nc3C2O)C(=O)OC(C)C2NC(=S)c3csc(n3)C(C(C)(O)C(C)O)NC(=O)C3CSC(=N3)C(=CC)NC(=O)C(C(C)O)NC(=O)c3csc(n3)C3(CCC(c4nc(C(N)=O)cs4)NC3c3csc2n3)NC(=O)C(C)NC1=O (centres undefined) has a GHS category of 5. COC(=O)CCN[N+](C)(C)C showed a GHS category of 3. Compound CN(C(=O)CC(=O)N(C)c1c(I)c(C(=O)NC(CO)C(O)CO)c(I)c(C(=O)NC(CO)C(O)CO)c1I)c1c(I)c(C(=O)NC(CO)C(O)CO)c(I)c(C(=O)NC(CO)C(O)CO)c1I (centres undefined) has a GHS category of 5. Compound CCCc1c(Cc2ccc(-c3ccccc3-c3nn[nH]n3)cc2)c(N)nc2ncnn12 has a GHS category of 4. Work on CC(C)COP(=O)(OCC(C)C)OCC(C)C yielded a GHS category of 5. With O=C(OOC(=O)c1ccc(Cl)cc1Cl)c1ccc(Cl)cc1Cl the GHS category was 5. Work on CN[C@H](CC(N)=O)C(=O)NC(=O)[C@@H](N[C@@H]1C(=O)N2C1SC(C)(C)[C@@H]2C(=O)O)c1ccc(O)cc1 (some centres undefined) yielded a GHS category of 5. In the case of COC[C@@H]1CO[C@@](Cn2ccnc2)(c2cc3cc(Cl)cc(Cl)c3o2)O1, the GHS category is reported as 4. In the case of CCC1Nc2cc(Cl)c(S(N)(=O)=O)cc2S(=O)(=O)N1 (centres undefined), the GHS category is reported as 5. With CC(C)N1C2CCC1CC(=O)C2 the GHS category was 3. Work on CC(C)=CCC(O)C1=CC(=O)c2c(O)ccc(O)c2C1=O (centres undefined) yielded a GHS category of 4. CCCCc1ccc2[nH]c(NC(=O)OC)nc2c1 showed a GHS category of 2. For N[C@@H](C(=O)N[C@@H]1C(=O)N2C(C(=O)O)=C(Cl)CS[C@H]12)c1ccccc1, the GHS category was 5. CC(C)(O/N=C(\C(=O)N[C@@H]1C(=O)N2C(C(=O)[O-])=C(C[n+]3ccccc3)CS[C@H]12)c1csc(N)n1)C(=O)O gave a GHS category of 5. In the case of CN1CC(c2ccnn2-c2ccccc2)CC2c3cccc4[nH]cc(c34)CC21 (centres undefined), the GHS category is reported as 4. N#Cc1ccc(C#N)cc1 showed a GHS category of 5. With CCCCCCCCCCCCCCCC(=O)OC(C)C the GHS category was 5. Work on FC(F)(Cl)Cl yielded a GHS category of 4. In the case of CCC(=O)O[C@H]1[C@H](O[C@@H]2[C@@H](C)[C@H](O[C@H]3C[C@@](C)(OC)[C@@H](O)[C@H](C)O3)[C@@H](C)C(=O)O[C@H](CC)[C@@](C)(O)[C@H](O)[C@@H](C)C(=O)[C@H](C)C[C@@]2(C)O)O[C@H](C)C[C@@H]1N(C)C, the GHS category is reported as 5. CC(=O)OC(C)c1ccccc1 (racemic) showed a GHS category of 5. Work on O=C(O)CNC(c1ccccc1)c1ccccc1 yielded a GHS category of 4. With CCCC(=O)O[C@]1(C(=O)CO)CC[C@H]2[C@@H]3CCC4=CC(=O)CC[C@]4(C)[C@H]3[C@@H](O)C[C@@]21C the GHS category was 5. Compound C[C@]12CCC(=O)C[C@@H]1CC[C@@H]1[C@@H]2CC[C@@]2(C)[C@H]1CC[C@]2(C)O has a GHS category of 5. For CCCCCCCNC(=O)c1cnc2cccc(C)n2c1=O, the GHS category was 3. For O=C(c1ccc(OC2CCOC2)cc1)c1cc(I)ccc1Cl (centres undefined), the GHS category was 4. For CCSC, the GHS category was 5. With CCCCCCCCCCCC(=O)OOC(=O)CCCCCCCCCCC the GHS category was 5. CC1=C(/C=C/C(C)=C/C=C/C(C)=C\C(=O)O)C(C)(C)CCC1 showed a GHS category of 5. NS(=O)(=O)c1cc2c(cc1Cl)NC(Cc1ccccc1)NS2(=O)=O (centres undefined) gave a GHS category of 5. Work on CC(=O)CC(=O)O[C@H]1C[C@@H](C)CC[C@@H]1C(C)C yielded a GHS category of 5. Compound O=C(NC(=O)c1ccccc1Cl)Nc1ccc(OC(F)(F)F)cc1 has a GHS category of 5. In the case of CCCCc1c(Cc2ccc(-c3ccccc3-c3nn[nH]n3)cc2)c(=O)nc2nc(C)[nH]n12, the GHS category is reported as 4. CCC(C(=O)Oc1cc(C)ccc1C(C)C)c1ccc(-c2ccccc2)cc1 (centres undefined) showed a GHS category of 5. For CCC(C)(C)OC(=O)N[C@@H](Cc1c[nH]c2ccccc12)C(=O)N[C@@H](CCSC)C(=O)N[C@@H](CC(=O)O)C(=O)N[C@@H](Cc1ccccc1)C(N)=O, the GHS category was 5. Compound CC(C)(C)C(O)/C=C/c1ccc2c(c1)OCO2 (centres undefined) has a GHS category of 5. In the case of Oc1cn2c(n1)Nc1ccc(Cl)c(Cl)c1C2, the GHS category is reported as 4. Work on Cn1c(=O)oc2ccc(Cl)cc21 yielded a GHS category of 5. For N#Cc1c(Cl)nc(Cl)c(C#N)c1-c1ccccc1, the GHS category was 5. CC(C)c1ccc(C(C)(C)C(C)(C)c2ccc(C(C)C)cc2)cc1 showed a GHS category of 5.

— the CATMoS acute toxicity set (Mansouri et al. 2021)
